Measurements: patent publication US7074765B2, “Synthetic peptide analogs of Arg-Pro-Pro-Gly-Phe as selective inhibitors of thrombin and thrombin activation of protease activated receptors 1 and 4” (The Regents of the University of Michigan, priority 2003, dated 2006)

Columns and labels:
[1] = system: normal human citrated plasma; assay: prothrombin time (PT); format: biochemical; conditions: normal human plasma; p<0.05
Method: (§1) The influence of the various peptide formulations used in the present invention on established coagulation-based assays was determined. The activated partial thromboplastin time (APTT) is performed by mixing 0.05 ml normal human citrated plasma with 0.05 ml activated partial thromboplastin reagent purchased from Organon Teknika, Research Triangle Park, N.C. in the absence or presence of a peptide inhibitor. After incubation for 5 min at 37° C., the mixture is recalcified with 0.05 ml of 30 mM calcium chloride and the time to clot formation is measured in an Amelung KC4A instrument (Sigma Chemical Corp, St. Louis, Mo.) (Hasan et al. Thrombosis and Haemostasis. 82, 1182–1187 (1999)). The prothrombin time (PT) is performed by mixing 0.05 ml normal human citrated plasma with 0.05 ml Simplastin (Organon Teknika, Research Triangle Park, N.C.) followed by incubation for 3 min at 37° C. in the absence or presence of a peptide inhibitor. At the addition of 0.05 ml of 30 mM calcium chloride, the time to clot formation is measured in an KC4A instrument (Sigma Chemical Corp, St. Louis, Mo.) (Hasan et al. Thrombosis and Haemostasis. 82, 1182–1187 (1999)). The thrombin clotting time (TCT) is performed by adding 0.1 ml normal human citrated plasma in the absence or presence of a peptide inhibitor and 0.05 ml of a α-thrombin solution such that the final concentration of the thrombin in the entire mixture was 1 nM. Upon addition of the thrombin, the time to clot formation is measured in an KC4A instrument (Sigma Chemical Corp, St. Louis, Mo.). In FIG. 5, peptide TH146 produces a significant prolongation (p<0.05) of the activated partial thromboplastin time at 15 μM, of the prothrombin time at 60 μM, and the thrombin clotting time at 15 μM. In FIG. 6, peptide MAP4-TH146 produced a significant prolongation (p<0.05) of the activated partial thromboplastin time at 0.195 μM, of the prothrombin time at 3.125 μM, and the thrombin clotting time at 0.39 μM.

[2] = system: platelets in platelet-rich plasma; assay: γ-thrombin-induced platelet aggregation in platelet-rich plasma; format: cell-based, human
Method: Fresh whole blood was collected and mixed with 0.013 M sodium citrate and platelet-rich plasma was prepared according to the method of Meloni et al., J. Biol. Chem. 266, 6786 (1991). Platelet-rich plasma with a normalized platelet count between 2–2.5×10^8 platelets/ml was added to a cuvette of an aggregometer (Chronlog Corp., Havertown, Pa.), standardized using the protocol of Meloni et al., supra. Peptides to be examined were added to the cuvette and the mixture stabilized for a few moments. Once the baseline was stabilized, γ-thrombin (10–70 nM) (Haematologic Technologies, Essex Junction, Vt.) was added to determine the minimal concentration of the agonist necessary to achieve full platelet aggregation. All investigations with peptides were performed using threshold concentrations of γ-thrombin. Aggregation was allowed to proceed for 5 minutes before stopping. When ADP-induced platelet aggregation studies were performed, 1–5 μM ADP (Sigma) was added to the cuvette containing platelet-rich plasma.

[3] = molecular target: T1, thrombocytin cleavage of recombinant human PAR1 extracellular domain (Homo sapiens, UniProt P25116); assay: Inhibition of thrombocytin-induced cleavage of rPAR1EC; format: biochemical; conditions: 16.7 nM thrombocytin, 45 min, 37° C.; below concentration that blocks the enzyme's proteolytic activity
T1 construct: A portion of the extracellular domain of human PAR1 (Ala^26-Ser^99) (rPAR1EC) was expressed in Escherichia coli; His10-DDDDK (pET19b) (N); made in house; host or cells: E. coli BL21(DE3), pET19b (rPAR1EC)
T1 sequence (P25116 26-99): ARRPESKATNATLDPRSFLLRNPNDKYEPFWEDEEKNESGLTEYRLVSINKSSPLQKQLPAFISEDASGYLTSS
Method: (§2) Thrombocytin is a snake venom enzyme that activates platelets by cleaving PAR1 at the thrombin cleavage site (Santos et al., FEBS Letters. 18, 3570–3577 (2000)). […] The ability of MAP4-rOicPGF to block thrombocytin cleavage of rPAR1EC was performed as follows. One μg of rPAR1EC in 0.01 mM Tris-HCL, 0.2 M NaCl, pH 8.0 was incubated at 37° C. for 15 min or 45 min with 1 nM of α-thrombin or 0.5 μg/mL thrombocytin (16.7 nM), respectively, in the absence or presence of 0.025 to 1 mM MAP4-rOicPGF. The reaction mixture was separated on SDS-PAGE and stained with Coomassie Brilliant Blue. The cleaved gel images were scanned using the software Scion Image, ScionCorp, Frederick, Md.

[4] = molecular target: T2, α-thrombin cleavage of recombinant extracellular fragment of human PAR1 (rPAR1EC) (Homo sapiens, UniProt P00734); assay: Inhibition of α-thrombin-induced cleavage of rPAR1EC; format: biochemical; conditions: 1 nM α-thrombin, 15 min, 37° C.
T2 construct: A portion of the extracellular domain of human PAR1 (Ala^26-Ser^99) (rPAR1EC) was expressed in Escherichia coli; with 1 nM of α-thrombin or 0.5 μg/mL thrombocytin (16.7 nM); His10-DDDDK (pET19b) (N); made in house; host or cells: E. coli BL21(DE3), pET19b (rPAR1EC)
Method: as §2

[5] = molecular target: α-thrombin (Homo sapiens, UniProt P00734); assay: α-thrombin hydrolysis of chromogenic substrate Sar-Pro-Arg-pNA; format: biochemical; conditions: 1 nM α-thrombin; 0–0.5 mM peptide
Method: FIG. 10 examines the ability of MAP4-TH146 (β-Ala-Lys-2Lys-4(D-Arg-Oic-Pro-Gly-Phe)) to block thrombin or thrombocytin-induced proteolysis of recombinant extracellular fragment of human PAR1 (rPAR1EC). In the upper Panels, 1 μg of rPAR1EC in 10 mM Tris-HCI, 200 mM NaCl, pH 8.0 was incubated at 37° C. for 15 min or 45 min with 1 nM α-thrombin or 0.5 μg/ml (16.7 nM) thrombocytin, respectively, in the absence or presence of increasing concentrations of MAP4-TH146 (0.05 to 1.0 mM)). In the middle Panel, the ability of α-thrombin (1 nM) to hydrolyze the chromogenic substrate Sar-Pro-Arg-pNA in the presence or absence of 0–0.5 mM MAP4-TH146 was determined. In the bottom Panel, the ability of thrombocytin (16.7 nM) to hydrolyze 1 mM H-D-Phe-Pip-Arg-paranitroanilide (S2238) in the presence or absence of 0–1.0 mM MAP4-TH146 was determined. […] Alternatively, in the bottom Panel, MAP4-TH146 inhibits thrombocytin proteolysis of rPAR1EC at concentrations below that necessary to block the proteolytic activity of the enzyme.

[6] = system: normal human citrated plasma; assay: thrombin clotting time (TCT); format: biochemical; conditions: normal human plasma; p<0.05
Method: as §1

β-Ala-Lys-2Lys-4(D-Arg-Oic-Pro-Gly-Phe) [MAP4-rOicPGF]
concentration giving significant prolongation of the PT [1]: 3.125 µM | concentration that abolished γ-thrombin-induced platelet aggregation ([2]; 40 nM γ-thrombin): ≥ 0.0125 mM | effect on γ-thrombin-induced platelet aggregation ([2]; 0.006 mM peptide, 40 nM γ-thrombin): returned to pretreatment levels | effect on γ-thrombin-induced platelet aggregation ([2]; 0.05 mM peptide, 40 nM γ-thrombin): completely abolished | Concentration of Peptide [mM] That Gives 100% Inhibition ([2]; minimal concentration that blocked γ-thrombin-induced platelet aggregation in platelet-rich plasma): 0.019 mM | concentration that blocks thrombocytin cleavage of rPAR1EC [3]: 0.2 mM | effect on α-thrombin cleavage of rPAR1EC [4]: inhibits thrombin and thrombocytin cleavage of rPAR1EC | effect on α-thrombin hydrolysis of Sar-Pro-Arg-pNA [5]: directly blocking α-thrombin's proteolytic activity | concentration giving significant prolongation of the TCT [6]: 0.39 µM
